Experimental data: the NIST ThermoML archive (doi:10.1016/j.fluid.2006.07.013)

Assay: xn = mol fraction of the nth substance listed

CC(C)COC(=O)CCCCC(=O)OCC(C)C [diisobutyl adipate] + O=C=O
Conditions	mass density [kg/m3]
294.75 K, Liquid, Volume and mass of phase, x1 = 0.11	807
295.25 K, Liquid, Volume and mass of phase, x1 = 0.039	795
298.95 K, Liquid, Volume and mass of phase, x1 = 0.11	805
302.75 K, Liquid, Volume and mass of phase, x1 = 0.096	814
304.65 K, Liquid, Volume and mass of phase, x1 = 0.11	805
305.35 K, Gas, volume and mass of phase, x1 = 0.011	702
305.75 K, Liquid, Volume and mass of phase, x1 = 0.039	764
308.85 K, Liquid, Volume and mass of phase, x1 = 0.11	791
310.35 K, Liquid, Volume and mass of phase, x1 = 0.064	793
311.05 K, Gas, volume and mass of phase, x1 = 0.011	667
311.25 K, Liquid, Volume and mass of phase, x1 = 0.161	865
311.95 K, Liquid, Volume and mass of phase, x1 = 0.592	813
312.15 K, Liquid, Volume and mass of phase, x1 = 0.282	853
314.45 K, Liquid, Volume and mass of phase, x1 = 0.11	789
316.85 K, Liquid, Volume and mass of phase, x1 = 0.039	739
322.15 K, Liquid, Volume and mass of phase, x1 = 0.096	800
322.55 K, Liquid, Volume and mass of phase, x1 = 0.11	791
323.65 K, Liquid, Volume and mass of phase, x1 = 0.282	832
329.95 K, Gas, volume and mass of phase, x1 = 0.011	639
330.75 K, Liquid, Volume and mass of phase, x1 = 0.11	766
332.65 K, Liquid, Volume and mass of phase, x1 = 0.039	732
332.75 K, Liquid, Volume and mass of phase, x1 = 0.592	829
337.45 K, Liquid, Volume and mass of phase, x1 = 0.282	821
342.05 K, Liquid, Volume and mass of phase, x1 = 0.11	756
343.35 K, Liquid, Volume and mass of phase, x1 = 0.064	762
345.25 K, Liquid, Volume and mass of phase, x1 = 0.039	702
347.35 K, Liquid, Volume and mass of phase, x1 = 0.096	768
350.15 K, Liquid, Volume and mass of phase, x1 = 0.282	810
351.35 K, Liquid, Volume and mass of phase, x1 = 0.592	819
353.25 K, Liquid, Volume and mass of phase, x1 = 0.161	791
356.25 K, Liquid, Volume and mass of phase, x1 = 0.11	740
357.45 K, Gas, volume and mass of phase, x1 = 0.011	558
357.75 K, Liquid, Volume and mass of phase, x1 = 0.039	675
360.85 K, Liquid, Volume and mass of phase, x1 = 0.064	724
363.05 K, Liquid, Volume and mass of phase, x1 = 0.282	800
366.65 K, Liquid, Volume and mass of phase, x1 = 0.039	660
369.85 K, Liquid, Volume and mass of phase, x1 = 0.096	731
370.95 K, Liquid, Volume and mass of phase, x1 = 0.592	807
371.25 K, Liquid, Volume and mass of phase, x1 = 0.11	723
371.55 K, Liquid, Volume and mass of phase, x1 = 0.282	791
376.85 K, Gas, volume and mass of phase, x1 = 0.039	638
378.45 K, Gas, volume and mass of phase, x1 = 0.011	518
380.95 K, Liquid, Volume and mass of phase, x1 = 0.161	760
381.65 K, Liquid, Volume and mass of phase, x1 = 0.064	687
383.95 K, Liquid, Volume and mass of phase, x1 = 0.282	776
391.15 K, Liquid, Volume and mass of phase, x1 = 0.592	790
392.25 K, Liquid, Volume and mass of phase, x1 = 0.096	696
400.05 K, Gas, volume and mass of phase, x1 = 0.064	655
400.55 K, Liquid, Volume and mass of phase, x1 = 0.282	760
401.45 K, Gas, volume and mass of phase, x1 = 0.039	588
401.65 K, Liquid, Volume and mass of phase, x1 = 0.11	681
404.55 K, Gas, volume and mass of phase, x1 = 0.011	471
408.05 K, Liquid, Volume and mass of phase, x1 = 0.161	721
409.85 K, Liquid, Volume and mass of phase, x1 = 0.592	777
419.65 K, Liquid, Volume and mass of phase, x1 = 0.282	740
420.05 K, Liquid, Volume and mass of phase, x1 = 0.096	651
421.25 K, Gas, volume and mass of phase, x1 = 0.064	617
421.85 K, Liquid, Volume and mass of phase, x1 = 0.161	706
423.15 K, Liquid, Volume and mass of phase, x1 = 0.592	772
423.65 K, Liquid, Volume and mass of phase, x1 = 0.11	650
424.65 K, Gas, volume and mass of phase, x1 = 0.039	541
